Target: Stx2A1 (Escherichia phage 933W, UniProt P09385)
Format: biochemical, E. coli (STEC)
Conditions: read-out: IC50 against Stx2A1

Sequence of Stx2A1 (P09385 23-272 limits assumed): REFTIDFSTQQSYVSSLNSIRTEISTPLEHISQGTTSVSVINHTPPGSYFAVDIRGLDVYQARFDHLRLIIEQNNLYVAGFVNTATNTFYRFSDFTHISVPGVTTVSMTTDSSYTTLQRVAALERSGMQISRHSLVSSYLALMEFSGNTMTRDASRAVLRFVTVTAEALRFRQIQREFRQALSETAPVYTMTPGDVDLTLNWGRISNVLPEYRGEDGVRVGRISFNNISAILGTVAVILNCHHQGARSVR

Q: `CC1(C)Cc2cc(C(=O)O)sc2-c2ccccc21` [RU-NT-206, 5,5-Dimethyl-4,5-dihydronaphtho[1,2-b]thiophene-2-carboxylic acid] was tested. Which IC50 did it give?
A: 83 ± 30 µM

From US20260207576A1 (priority 2024, published 2026)
